Converted amounts (≈) assume the structure as drawn.
What was measured:
[1] = test system: Streptococcus pneumoniae (ATCC6305); assay: Microtitre plate assay, IC90 determination (SPN 6305); assay type: cell-based; conditions: 90% inhibitory concentration for bacterial growth, 37° C., resazurin fluorescence; for IC90: Streptococcus pneumoniae, ATCC6305, 24 h; for IC90 SPN 6305: 24 hours
Description: (§1) The bacteria used in this study were grown overnight in flasks containing 100 ml Mueller-Hinton Broth (Becton Dickinson—cat. no. 275730) in sterile de-ionized water, with shaking, at 37° C. Stocks (0.5 ml/tube) were stored at −70° C. until use. Bacteria titrations were performed in microtiter plates and colony forming units (CFUs) were determined. In general, an inoculum level of approximately 100 CFUs was used for susceptibility testing.
(§2) Flat-bottom, sterile 96-well plastic microtiter plates were filled with 180 μl of sterile deionized water, supplemented with 0.25% BSA. Subsequently, stock solutions (7.8× final test concentration) of compounds were added in 45 μl volumes in column 2 Serial five-fold dilutions (45 μl in 180 μl) were made directly in the microtiter plates from column 2 to reach column 11. Untreated control samples with (column 1) and without (column 12) inoculum were included in each microtiter plate. Depending on the bacteria type, approximately 10 to 60 CFU per well of bacteria inoculum (100 TCID50), in a volume of 100 μl in 2.8× Mueller-Hinton broth medium, was added to the rows A to H, except column 12. The same volume of broth medium without inoculum was added to column 12 in row A to H. The cultures were incubated at 37° C. for 24 hours under a normal atmosphere (incubator with open air valve and continuous ventilation). At the end of incubation, one day after inoculation, the bacterial growth was quantitated fluorometrically. Therefore resazurin (0.6 mg/ml) was added in a volume of 20 μl to all wells 3 hours after inoculation, and the plates were re-incubated overnight. A change in colour from blue to pink indicated the growth of bacteria. The fluorescence was read in a computer-controlled fluorometer (Cytofluor Biosearch) at an excitation wavelength of 530 nm and an emission wavelength of 590 nm. The % growth inhibition achieved by the compounds was calculated according to standard methods. The IC90 (expressed in μg/ml) was defined as the 90% inhibitory concentration for bacterial growth.

[2] = test system: Staphylococcus aureus (ATCC29213); assay: Microtitre plate assay, IC90 determination (STA 29213); assay type: cell-based; conditions: 90% inhibitory concentration for bacterial growth, 37° C., resazurin fluorescence; for IC90: Staphylococcus aureus, ATCC29213, 24 h; for IC90 STA 29213: 24 hours
Description: as §1, §2

[3] = test system: Enterococcus faecalis (ATCC29212); assay: Microtitre plate assay, IC90 determination (EFA 29212); assay type: cell-based; conditions: 90% inhibitory concentration for bacterial growth, 37° C., resazurin fluorescence; for IC90 EFA 29212: 24 hours; for IC90: Enterococcus faecalis, ATCC29212, 24 h
Description: as §1, §2

[4] = test system: Pseudomonas aeruginosa (ATCC27853); assay: Microtitre plate assay, IC90 determination (PAE 27853); assay type: cell-based; conditions: 90% inhibitory concentration for bacterial growth, 37° C., resazurin fluorescence; for IC90 PAE 27853: 24 hours; for IC90: Pseudomonas aeruginosa, ATCC27853, 24 h
Description: as §1, §2

[5] = test system: Streptococcus pyogens (ATCC8668); assay: Microtitre plate assay, IC90 determination (SPY 8668); assay type: cell-based; conditions: 90% inhibitory concentration for bacterial growth, 37° C., resazurin fluorescence; for IC90 SPY 8668: 24 hours; for IC90: Streptococcus, ATCC8668, 24 h
Description: as §1, §2

SMILES	IC90 [1] [µg/mL]	IC90 [2] [µg/mL]	melting point [°C]	IC90 SPN 6305 [1] [µg/mL]	IC90 STA 29213 [2] [µg/mL]	IC90 [3] [µg/mL]	IC90 [4] [µg/mL]	IC90 [5] [µg/mL]	IC90 EFA 29212 [3] [µg/mL]	IC90 PAE 27853 [4] [µg/mL]	IC90 SPY 8668 [5] [µg/mL]
CNCCC(O)(CCc1ccc(F)cc1)C(c1ccccc1)c1cc2ccccc2nc1OC (stereo not shown) [Compound 37]	0.3 (≈ 0.654 µM)	2.9 (≈ 6.32 µM)	134	–	–	–	–	–	–	–	–
COc1nc2ccc(Cl)cc2cc1C(c1ccccc1)C(O)(CCc1ccccc1)CCN(C)C (stereo not shown) [Compound 9]	1.7 (≈ 3.48 µM)	24.5 (≈ 50.1 µM)	172	–	–	–	–	–	–	–	–
COc1nc2ccc(Br)cc2cc1C(c1ccccc1)C(O)(CCc1ccccc1)CCN(C)C (stereo not shown) [Compound 19]	–	–	–	2.1 (≈ 3.94 µM)	8.5 (≈ 15.9 µM)	–	–	–	1.7 (≈ 3.19 µM)	1.7 (≈ 3.19 µM)	1.7 (≈ 3.19 µM)
COc1nc2ccc(Br)cc2cc1C(c1ccccc1)C(O)(CCc1ccc(F)cc1)CCN(C)C (racemic) [Compound 49]	–	–	–	2.2 (≈ 3.99 µM)	11.0 (≈ 19.9 µM)	–	–	–	43.8 (≈ 79.4 µM)	43.8 (≈ 79.4 µM)	43.8 (≈ 79.4 µM)
COc1nc2ccc(Br)cc2cc1C(c1ccccc1)C(O)(CCc1ccccc1)CCN(C)C (stereo not shown) [Compound 20]	–	8.5 (≈ 15.9 µM)	–	1.1 (≈ 2.06 µM)	–	–	–	–	1.7 (≈ 3.19 µM)	1.7 (≈ 3.19 µM)	1.7 (≈ 3.19 µM)
COc1nc2ccc(Br)cc2cc1C(c1ccccc1)C(O)(CCc1ccc(F)cc1)CCN(C)C (stereo not shown) [Compound 26]	–	–	–	2.0 (≈ 3.63 µM)	4.4 (≈ 7.98 µM)	–	–	–	1.7 (≈ 3.08 µM)	1.7 (≈ 3.08 µM)	1.7 (≈ 3.08 µM)
COc1nc2ccc(Br)cc2cc1C(c1cccc(C)c1)C(O)(CCc1ccccc1)CCN(C)C (stereo not shown) [Compound 72]	–	–	–	2.2 (≈ 4.02 µM)	1.7 (≈ 3.1 µM)	–	–	–	43.5 (≈ 79.4 µM)	43.5 (≈ 79.4 µM)	43.5 (≈ 79.4 µM)
COc1nc2ccc(Br)cc2cc1C(c1ccccc1)C(O)(CCc1cccc(OC(F)(F)F)c1)CCN(C)C (racemic) [Compound 45]	–	–	–	0.4 (≈ 0.648 µM)	2.5 (≈ 4.05 µM)	–	–	–	2.2 (≈ 3.56 µM)	0.7 (≈ 1.13 µM)	2.0 (≈ 3.24 µM)
CN(C)CCC(O)(CCc1ccccc1)C(c1ccc(Cl)cc1)c1cc2cc(Br)ccc2nc1N(C)C (stereo not shown) [Compound 33]	0.8 (≈ 1.38 µM)	1.8 (≈ 3.1 µM)	–	–	–	1.8 (≈ 3.1 µM)	1.8 (≈ 3.1 µM)	1.5 (≈ 2.58 µM)	–	–	–
COc1nc2ccc(Br)cc2cc1C(c1cccc(Cl)c1)C(O)(CCc1ccccc1)CCN(C)C (stereo not shown) [Compound 68]	–	2.3 (≈ 4.05 µM)	–	0.7 (≈ 1.23 µM)	–	56.8 (≈ 100 µM)	–	56.8 (≈ 100 µM)	–	11.3 (≈ 19.9 µM)	–

Second part, led by results:

IC90 [1] [µg/mL]	IC90 [2] [µg/mL]	melting point [°C]	IC90 SPN 6305 [1] [µg/mL]	IC90 STA 29213 [2] [µg/mL]	IC90 [3] [µg/mL]	IC90 [4] [µg/mL]	IC90 [5] [µg/mL]	SMILES	IC90 EFA 29212 [3] [µg/mL]	IC90 PAE 27853 [4] [µg/mL]	IC90 SPY 8668 [5] [µg/mL]
–	–	222	2.1 (≈ 3.6 µM)	9.3 (≈ 15.9 µM)	–	–	–	CSc1nc2ccc(Br)cc2cc1C(c1ccc(Cl)cc1)C(O)(CCc1ccccc1)CCN(C)C (stereo not shown) [Compound 32]	–	–	–
9.1 (≈ 20 µM)	10.2 (≈ 22.4 µM)	122	–	–	–	–	–	COc1nc2ccccc2cc1C(c1ccccc1)C(O)(CCc1ccccc1)CCN(C)C (stereo not shown) [Compound 12]	–	–	–
–	–	–	0.6 (≈ 1.02 µM)	1.9 (≈ 3.24 µM)	9.3 (≈ 15.9 µM)	1.9 (≈ 3.24 µM)	1.9 (≈ 3.24 µM)	COc1nc2ccc(Br)cc2cc1C(c1cccc(Cl)c1)C(O)(CCc1ccc(F)cc1)CCN(C)C (stereo not shown) [Compound 81]	–	–	–
1.7 (≈ 3.1 µM)	2.2 (≈ 4.02 µM)	–	–	–	54.8 (≈ 100 µM)	54.8 (≈ 100 µM)	43.5 (≈ 79.4 µM)	COc1nc2ccc(Br)cc2cc1C(c1cccc(C)c1)C(O)(CCc1ccccc1)CCN(C)C (stereo not shown) [Compound 71]	–	–	–
–	59.2 (≈ 100 µM)	–	3.7 (≈ 6.25 µM)	–	59.2 (≈ 100 µM)	59.2 (≈ 100 µM)	9.4 (≈ 15.9 µM)	COc1nc2ccc(Br)cc2cc1C(c1ccccc1)C(O)(CCc1ccc(F)cc1)CCN1CCCCC1 (stereo not shown) [Compound 35]	–	–	–

From US20130030017A1, “QUINOLINE DERIVATIVES AS ANTIBACTERIAL AGENTS” (priority 2005, published 2013)
